One data set concerns Puccinia recondita. The data set is described as follows: In vivo preventive test on Puccinia recondita (brown rust on wheat). Conditions: wheat plants, preventive spray, 500 ppm, grading 12 days after contamination. Here is the method: Example: In Vivo Preventive Test on Puccinia recondita (Brown Rust on Wheat) […] Wheat plants (“Scipion” variety), sown in starter cups on a 50/50 peat soil-pozzolana substrate and grown at 22° C., are treated at the 1-leaf stage (10 cm height) by spraying with the active ingredient prepared as described above. Plants, used as controls, are treated with the mixture of acetone/tween/DMSO/water not containing the active material. After 24 hours, the plants are contaminated by spraying the leaves with an aqueous suspension of Puccinia […] spores (100 000 spores per ml). […] Grading (% of efficacy) is carried out 12 days after the contamination, in comparison with the control plants. Under these conditions, good (at least 70%) or total protection is observed at a dose of 500 ppm with the following compounds: […]

In another data set the test system is Uromyces appendiculatus. The data set is described as follows: In vivo preventive test on Uromyces appendiculatus (bean rust). The conditions noted are these: bean plants, preventive spray, 500 ppm, grading 11 days after contamination. Here is the method: Example: In Vivo Preventive Test on Uromyces appendiculatus (Bean Rust) […] Bean plants (“Saxa” variety), sown in starter cups on a 50/50 peat soil-pozzolana substrate and grown at 24° C., are treated at the 2-leaf stage (9 cm height) by spraying with the active ingredient prepared as described above. Plants, used as controls, are treated with the mixture of acetone/tween/DMSO/water not containing the active material. After 24 hours, the plants are contaminated by spraying the leaves with an aqueous suspension of Uromyces appendiculatus spores (150 000 spores per ml). […] Grading (% of efficacy) is carried out 11 days after the contamination, in comparison with the control plants. Under these conditions, good (at least 70%) or total protection is observed at a dose of 500 ppm with the following compounds: […]

For a further data set, the system named is Sphaerotheca fuliginea. The data set is described as follows: In vivo preventive test on Sphaerotheca fuliginea (powdery mildew on cucurbits). Conditions: gherkin plants, preventive spray, 500 ppm, grading 12 days after contamination. As for the experimental part:
Example: In Vivo Preventive Test on Sphaerotheca fuliginea (Powdery Mildew on Cucurbits) […] Gherkin plants (“Vert petit de Paris” variety), sown in starter cups on a 50/50 peat soil-pozzolana substrate and grown at 24° C., are treated at the Z11 cotyledon stage by spraying with the active ingredient prepared as described above. Plants, used as controls, are treated with the mixture of acetone/tween/DMSO/water not containing the active material. After 24 hours, the plants are contaminated by spraying the cotyledons with an aqueous suspension of Sphaerotheca fuliginea spores (100 000 spores per ml). The spores are collected from infected plants. […] Grading (% of efficacy) is carried out 12 days after the contamination, in comparison with the control plants. Under these conditions, good (at least 70%) or total protection is observed at a dose of 500 ppm with the following compounds: […]

A short description of data set [1]: logP by HPLC on reversed phase columns (EEC directive 79/831 Annex V.A8). The conditions noted are these: method [a]: LC-MS at pH 2.7, 0.1% formic acid in water / acetonitrile gradient 10% to 95%.
The test system of the next data set is Alternaria brassicae. The data set is described as follows: In vivo preventive test on Alternaria brassicae (leaf spot on radish). Conditions: radish plants, preventive spray, 500 ppm, grading 6 days after contamination. As for the experimental part: Example: In Vivo Preventive Test on Alternaria brassicae (Leaf Spot on Radish) […] Radish plants (“Pernod Clair” variety), sown in starter cups on a 50/50 peat soil-pozzolana substrate and grown at 17° C., are treated at the cotyledon stage by spraying with the active ingredient prepared as described above. Plants, used as controls, are treated with the mixture of acetone/tween/DMSO/water not containing the active material. After 24 hours, the plants are contaminated by spraying the cotyledons with an aqueous suspension of Alternaria brassicae spores (50 000 spores per ml). The spores are collected from a 15-day-old culture. […] Grading (% of efficacy) is carried out 6 days after the contamination, in comparison with the control plants. Under these conditions, good (at least 70%) or total protection is observed at a dose of 500 ppm with the following compounds: […]

Another data set deals with Pyrenophora teres. The data set is described as follows: In vivo preventive test on Pyrenophora teres (net blotch on barley). Conditions: barley plants, preventive spray, 500 ppm, grading 14 days after contamination. As for the experimental part:
Example: In Vivo Preventive Test on Pyrenophora teres (Net Blotch on Barley) […] Barley plants (“Plaisant” variety), sown in starter cups on a 50/50 peat soil-pozzolana substrate and grown at 22° C., are treated at the 1-leaf stage (10 cm height) by spraying with the active ingredient prepared as described above. Plants, used as controls, are treated with the mixture of acetone/tween/DMSO/water not containing the active material. After 24 hours, the plants are contaminated by spraying the leaves with an aqueous suspension of Pyrenophora teres spores (12 000 spores per ml). The spores are collected from a 12-day-old culture. […] Grading (% of efficacy) is carried out 14 days after the contamination, in comparison with the control plants. Under these conditions, good (at least 70%) or total protection is observed at a dose of 500 ppm with the following compounds: […]

In another data set the test system is Botrytis cinerea. The data set is described as follows: In vivo preventive test on Botrytis cinerea (grey mould). The conditions noted are these: gherkin plants, preventive spray, 500 ppm, grading 4 to 5 days after contamination. As for the experimental part:
Example: In Vivo Preventive Test on Botrytis cinerea (Grey Mould) […] Gherkin plants (“Vert petit de Paris” variety), sown in starter cups on a 50/50 peat soil-pozzolana substrate and grown at 24° C., are treated at the Z11 cotyledon stage by spraying with the active ingredient prepared as described above. Plants, used as controls, are treated with the mixture of acetone/tween/DMSO/water not containing the active material. After 24 hours, the plants are contaminated by spraying the cotyledons with an aqueous suspension of cryopreserved Botrytis cinerea spores (50 000 spores per ml). The spores are suspended in a nutrient solution composed of 10 g/L of PDB, 50 g/L of D-Fructose, 2 g/L of NH4NO3 and 1 g/L of KH2PO4. […] Grading (% of efficacy) is carried out 4 to 5 days after the contamination, in comparison with the control plants. Under these conditions, good (at least 70%) or total protection is observed at a dose of 500 ppm with the following compounds: […]

Data on 17 compounds can be found in US9765034B2, “5-halogenopyrazole biphenylcarboxamides” (BAYER CROPSCIENCE AG, priority 2012, dated 2017).

Take `CCON=C(C)c1ccc(-c2ccccc2NC(=O)c2c(C(F)F)nn(C)c2Cl)cc1` [Example 2]: the Eff. % with Puccinia recondita is reported as 98%; in the data set with Uromyces appendiculatus, 100%; in the data set with Sphaerotheca fuliginea, 100%. The logP in data set [1] is 4.58[a].
For the compound `CON=Cc1ccc(-c2ccccc2NC(=O)c2c(C(F)F)nn(C)c2Cl)c(Cl)c1` [Example 10], the figures for the Eff. % in the data set with Puccinia recondita, in the data set with Uromyces appendiculatus and in the data set on Sphaerotheca fuliginea were 97%, 100% and 100%, respectively. For the same compound, the logP in data set [1] was 4.05[a].
For `CCON=C(C)c1ccc(-c2ccccc2NC(=O)c2c(C(F)F)nn(C)c2F)cc1` [Example 11], the Eff. % in the data set with Alternaria brassicae is given as 97%; in the data set with Puccinia recondita, 94%; in the data set with Pyrenophora teres, 96%; in the data set with Uromyces appendiculatus, 100%; with Sphaerotheca fuliginea it was 100%. Further, in data set [1], the logP was 4.24[a].
With `CCON=Cc1c(F)cc(-c2ccccc2NC(=O)c2c(C(F)F)nn(C)c2Cl)cc1F` [Example 14], the Eff. % with Botrytis cinerea turned out to be 70%; with Alternaria brassicae, 100%; in the data set on Puccinia recondita it was 100%; in the data set on Pyrenophora teres it was 100%; in the data set with Uromyces appendiculatus, 100%; with Sphaerotheca fuliginea it was 100%. The logP in data set [1] is 4.04[a].
Regarding `CCON=C(C)c1ccc(-c2ccccc2NC(=O)c2c(C(F)F)nn(C)c2F)cc1` [Example 16], the Eff. % stood at 80% in the data set on Botrytis cinerea; 100% in the data set on Alternaria brassicae; 94% with Puccinia recondita; 79% with Pyrenophora teres; 100% in the data set with Uromyces appendiculatus. The logP in data set [1] is 4.29[a].
For `CCON=Cc1ccc(-c2ccccc2NC(=O)c2c(C(F)F)nn(C)c2Cl)cc1Cl` [Example 17], the Eff. % came out at 98% with Alternaria brassicae; 97% in the data set on Puccinia recondita; 96% with Pyrenophora teres; 100% with Uromyces appendiculatus; 100% in the data set on Sphaerotheca fuliginea. Also, the logP in data set [1] is 4.64[a].
On to `CCON=Cc1ccc(-c2cc(F)ccc2NC(=O)c2c(C(F)F)nn(C)c2Cl)cc1` [Example 19], for which the Eff. % with Botrytis cinerea was 70%; in the data set on Alternaria brassicae, 88%; in the data set with Puccinia recondita it was 97%; in the data set with Pyrenophora teres, 80%; in the data set on Uromyces appendiculatus it was 100%; in the data set with Sphaerotheca fuliginea, 100%. Besides, the logP in data set [1] was 4.11[a].
With `CCON=Cc1ccc(-c2ccccc2NC(=O)c2c(C(F)F)nn(C)c2Cl)cc1C(F)(F)F` [Example 26], the Eff. % stood at 97% with Puccinia recondita, 90% with Pyrenophora teres, 100% in the data set on Uromyces appendiculatus and 100% in the data set on Sphaerotheca fuliginea. Besides, the logP in data set [1] was 4.65[a].
With `CON=Cc1ccc(-c2ccccc2NC(=O)c2c(C(F)F)nn(C)c2Cl)cc1F` [Example 33], the Eff. % in the data set with Botrytis cinerea amounted to 95%; with Alternaria brassicae, 88%; in the data set with Puccinia recondita it was 100%; in the data set with Pyrenophora teres, 96%; with Uromyces appendiculatus, 99%; in the data set on Sphaerotheca fuliginea, 100%. In data set [1], the logP was 3.75[a].
Take `CCON=C(C)c1ccc(-c2ccccc2NC(=O)c2c(C(F)F)nn(C)c2Cl)cc1` [Example 34]: the Eff. % was 89% in the data set with Puccinia recondita, 80% in the data set with Pyrenophora teres and 100% in the data set on Uromyces appendiculatus. The logP in data set [1] was 4.49[a].
As for `CCON=Cc1ccc(-c2ccccc2NC(=O)c2c(C(F)F)nn(C)c2Cl)c(Cl)c1` [Example 36], the Eff. % was found to be 95% in the data set with Botrytis cinerea; 81% in the data set on Alternaria brassicae; 97% in the data set on Puccinia recondita; 90% with Pyrenophora teres; 94% in the data set with Uromyces appendiculatus; 100% in the data set with Sphaerotheca fuliginea. Also, the logP in data set [1] is 4.49[a].
As to `CCON=Cc1ccc(-c2ccccc2NC(=O)c2c(C(F)F)nn(C)c2Cl)c(F)c1` [Example 37], the Eff. % was 100% with Botrytis cinerea; 88% with Alternaria brassicae; 97% in the data set on Puccinia recondita; 100% in the data set on Pyrenophora teres; 97% in the data set on Uromyces appendiculatus; 100% in the data set on Sphaerotheca fuliginea. Moreover, the logP in data set [1] is 3.65[a].
In the case of `CON=Cc1ccc(-c2ccccc2NC(=O)c2c(C(F)F)nn(C)c2Cl)cc1Cl` [Example 38], the Eff. % in the data set on Alternaria brassicae came out at 94%; in the data set on Puccinia recondita, 97%; in the data set with Pyrenophora teres it was 96%; with Uromyces appendiculatus, 100%; in the data set on Sphaerotheca fuliginea it was 100%. For the same compound, the logP in data set [1] was 4.19[a].
For the compound `CON=C(C)c1cccc(-c2cccc(NC(=O)c3c(C(F)F)nn(C)c3F)c2)c1` [Example 42], the Eff. % in the data set with Puccinia recondita is listed as 89%; with Pyrenophora teres, 70%; with Uromyces appendiculatus, 97%. In addition, the logP in data set [1] is 3.85[a].
On to `CCON=C(C)c1cccc(-c2cccc(NC(=O)c3c(C(F)F)nn(C)c3Cl)c2)c1` [Example 43], for which the Eff. % in the data set on Puccinia recondita turned out to be 89%; in the data set with Pyrenophora teres, 80%; with Uromyces appendiculatus it was 100%. For the same compound, the logP in data set [1] is 4.49[a].
`CCON=C(C)c1cccc(-c2cccc(NC(=O)c3c(C(F)F)nn(C)c3F)c2)c1` [Example 44]: the Eff. % turned out to be 80% in the data set with Botrytis cinerea; 100% in the data set with Alternaria brassicae; 94% in the data set on Puccinia recondita; 79% in the data set on Pyrenophora teres; 100% with Uromyces appendiculatus. Moreover, in data set [1], the logP is 4.29[a].
As for `CON=C(C)c1cccc(-c2cccc(NC(=O)c3c(C(F)F)nn(C)c3Cl)c2)c1` [Example 45], the Eff. % in the data set on Puccinia recondita is on record as 94%; in the data set on Pyrenophora teres it was 80%; in the data set on Uromyces appendiculatus, 100%. In addition, in data set [1], the logP was 4.04[a].
